Legend:
Assay type in all cases: in vivo, BALB/c mice
Details in all cases: FIG. 10; comparison with conventional asthma drugs
IgG2a = assay: ELISA determination of Der p 5-specific IgG (IgG2a) in serum of Der p 5 sensitized mice
Text: (§1) The effects of the STA-36 and STA-4 herbal composition as well as individual herbs on suppression of allergen-induced immunoglobulin G (IgG), immunoglobulin E (IgE), interleukin-4 (IL-4), and interferon γ (IFN-γ) were investigated using BALB/c mice sensitized with D.P. (Dermatophagoides pteronyssimus) allergen “Der p 5”. Dermatophagoides pteronyssimus is the house dust mite which acts as an antigen and produces an allergic asthmatic reaction in atopic person.
(§2) Female BALB/c mice aged between 4 and 6 weeks and weighed about 20 g were obtained from the National Animal-breeding Center, Republic of China and used in the studies. Mice were age- and sex- matched for each experiment.
(§3) BALB/c mice were initially intraperitoneally sensitized with 10 μg of Dermatophagoides pteronyssimus group 5 (“Der p 5”) allergen and 4 mg of aluminium hydroxide (Wyeth Pharmaceuticals, Punchbowl, Australia). Seven (7) days after the first sensitization, mice, except the placebo control group, were fed with STA-36 and STA-4 herbal compositions until the end of the twenty-first day.
(§4) At the end of the twenty first day, the mice were given a second booster injection of Der p 5. Forty eight (48) hours after the second booster injection, mice were placed in a round plastic container where the mice were further challenged by 0.1% Der p 5 spray.
(§5) Several hours after the challenge, the mouse was anaesthetized using 100 mg/ml phenobarbital. […]
(§6) The amount of Der p 5-specific IgG and IgE were determined by Enzyme Linked Immunosorbent Assay (ELISA). […]
(§7) Avidin-alkaline phosphatase (1:1000) (Strptavidin-AP, PharMinge 13043E) was then added and incubated for 1 hour at 25° C., followed by six (6) washes. […] Plates were read in a microplate autoreader (ELISA reader, Dynex MRX) at 405 nm. Readings were referenced to commercial isotypes standards which were mouse anti-TNP mAb, IgG1 (107.3), IgG2a (G155-178), and IgE (IgE-3).
(§8) All of the data contained in the experiments were calculated as “mean±SEM.” Trachea resistance change induced by acetylcholine after converted to PC 100 was measured as μg/kg. […]

IL-4 = assay: ELISA determination of IL-4 in fluid of pulmonary alveoli of Der p 5 sensitized mice
Text: as §1, §2, §3, §4
(§9) Several hours after the challenge, the mouse was anaesthetized using 100 mg/ml phenobarbital. Blood was collected from the tail vein or heart. […]
(§10) One hundred (100) μl of the supernatant from the fluid of pulmonary alveoli were then added to the microwells, together with cytokine standard solution, for overnight reaction at 4° C. […] Plates were read in a microplate autoreader (ELISA reader, Dynex MRX) at 405 nm.
as §8

IFN-γ = assay: ELISA determination of IFN-γ in fluid of pulmonary alveoli of Der p 5 sensitized mice
Text: as §1, §2, §3, §4, §9, §10, §8

IgE = assay: ELISA determination of Der p 5-specific IgE in serum of Der p 5 sensitized mice
Text: as §1, §2, §3, §4, §5, §6, §7, §8

Compound	effect on IgG (IgG2a) vs control (IgG2a)	effect on IL-4 vs control (IL-4)	effect on IFN-γ vs control (IFN-γ)	effect on IgE vs control (IgE)
CN1CCC(=C2c3ccccc3CC(=O)c3sccc32)CC1 [ketotifen]	only STA-4 demonstrated significant decreased in IgE and significant increase in IgG	only STA-4 demonstrated significant decreased in IgE and significant increase in IgG, IL-4	only STA-4 demonstrated significant decreased in IgE and significant increase in IgG, IL-4, and IFN-γ	only STA-4 demonstrated significant decreased in IgE
Cn1c(=O)c2[nH]cnc2n(C)c1=O.Cn1c(=O)c2[nH]cnc2n(C)c1=O.NCCN [aminophline]	only STA-4 demonstrated significant decreased in IgE and significant increase in IgG	only STA-4 demonstrated significant decreased in IgE and significant increase in IgG, IL-4	only STA-4 demonstrated significant decreased in IgE and significant increase in IgG, IL-4, and IFN-γ	only STA-4 demonstrated significant decreased in IgE
C[C@]12C=CC(=O)C=C1CC[C@@H]1[C@@H]2[C@@H](O)C[C@@]2(C)[C@H]1CC[C@]2(O)C(=O)CO [prednisolone]	only STA-4 demonstrated significant decreased in IgE and significant increase in IgG	only STA-4 demonstrated significant decreased in IgE and significant increase in IgG, IL-4	only STA-4 demonstrated significant decreased in IgE and significant increase in IgG, IL-4, and IFN-γ	only STA-4 demonstrated significant decreased in IgE
